Experimental data taken from publication PMC11396667, “Design, Synthesis, and Anticancer and Antibacterial Activities of Quinoline-5-Sulfonamides” (Molecules, 2024).
In brackets after ≈: the same amount, converted by molar mass.

What was measured:
[1] = system: Enterococcus faecalis ATCC 29212; assay: MIC, microtitration broth method, EF; type: cell-based; details: ATCC29212, 24 h, 37 °C, BHI broth
Source text: (§1) Since there is a general decrease in immunity during the treatment of oncological patients, i.e., patients are more susceptible to infectious diseases, it is advantageous if anticancer agents show antimicrobial properties at the same time. Therefore, the effects of the compounds were also investigated against Gram-positive bacteria. For this purpose, the susceptible collection strains of aerobic Staphylococcus aureus ATCC 29213 and facultatively aerobic Enterococcus faecalis ATCC 29212 and resistant clinical isolates of methicillin-resistant S. aureus (MRSA) SA 3202, SA 630 carrying the mecA gene, and vancomycin-resistant isolates of E. faecalis (VRE) 342B, 368, and 725B carrying the vanA gene were selected. Thus, the selection of the studied bacterial strains was adopted following the CLSI ([…]) international reference methodologies.
(§2) The in vitro antibacterial activity of the synthesized compounds was evaluated against representatives of multidrug-resistant bacteria, […] clinical isolates of methicillin-resistant S. aureus: clinical isolates of human origin, MRSA SA 3202, and MRSA SA 630 (National Institute of Public Health, Prague, Czech Republic), carrying the mecA gene. These two clinical isolates were classified as vancomycin-susceptible (but with a higher MIC of vancomycin equal to 2 μg/mL (VA2-MRSA). Vancomycin- and methicillin-susceptible S. aureus ATCC 29213 and vancomycin-susceptible Enterococcus faecalis ATCC 29212, obtained from the American Type Culture Collection, were used as the reference and quality control strains. Three vanA gene-carrying vancomycin-resistant isolates of E. faecalis (VRE 342B, VRE 368, VRE 725B) (Department of Infectious Diseases and Microbiology, Faculty of Veterinary Medicine, University of Veterinary Sciences Brno, Czech Republic) were provided by Oravcova et al..
(§3) The minimum inhibitory concentrations (MICs) were evaluated by the microtitration broth method according to the CLSI, with some modifications. The compounds were dissolved in DMSO (Sigma, St. Louis, MO, USA) to obtain a concentration of […] and diluted in a microtitration plate in an appropriate medium, i.e., Cation-Adjusted Mueller–Hinton Broth (CaMH, Oxoid, Basingstoke, UK) for staphylococci, and Brain Heart Infusion Broth (BHI, Oxoid) for enterococci to reach the final concentration of 256–0.125 µg/mL. Microtiter plates were inoculated with test microorganisms so that the final concentration of bacterial cells was 10^5. Ampicillin, oxacillin, and ciprofloxacin (Sigma) were used as reference drugs. A drug-free control and a sterility control were included. The plates were incubated for 24 h at 37 °C for staphylococci and enterococci. […] The experiments were repeated three times.

[2] = system: vancomycin-resistant E. faecalis VRE 368; assay: MIC, microtitration broth method, VRE2; type: cell-based; details: Enterococcus faecalis, 24 h, 37 °C, BHI broth
Source text: as §1, §2, §3

[3] = system: Enterococcus faecalis ATCC 29212; assay: MBC, agar aliquot subculture method, EF; type: cell-based; details: ATCC29212, 99.9% decrease in CFU, 24 h, 37 °C
Source text: The activities of the individual derivatives were expressed as minimum inhibitory concentrations (MICs) and minimum bactericidal concentrations (MBCs) and are shown in Table 3 together with the values of the antibiotics used as standards for comparison. […] MBC values of bactericidal compounds are indicated in bold in Table 3.
For the above-mentioned strains/isolates, the agar aliquot subculture method was used as a test for bactericidal agents. After the MIC value determination, the inoculum was transferred to CaMH (Oxoid) for staphylococci, and BHI (Oxoid) for enterococci medium using a multipoint inoculator. The plates were incubated in a thermostat at 37 °C for 24 h. The lowest concentration of test compound at which ≤5 colonies were obtained was then evaluated as MBC, corresponding to a 99.9% decrease in CFU relative to the original inoculum.

S. aureus ATCC 29213 = assay: MTT assay of bacterial respiratory activity; type: cell-based, Staphylococcus aureus; details: for S. aureus Respiration Inhibition: 24 h, at the lowest multiple of MIC giving at least 70% inhibition; for Conc.: lowest multiple of MIC with at least 70% inhibition of respiratory activity / Conc.: the same concentration as multiple of MBC: S. aureus ATCC 29213
Source text: The MTT assay can be used to assess cell growth by measuring respiration. Bacterial cell respiratory activity (which is ultimately reflected in their viability) of less than 70% after exposure to the MIC values for each test compound is considered as a positive result for this test. This low level of cellular oxidative metabolism indicates inhibition of cell growth by inhibition of respiration. The lowest multiples of the MIC values by which inhibition of S. aureus ATCC 29213 viability [%] greater than 70% was achieved are shown in Table 4. […] Therefore, the antibacterial activity of the discussed compounds cannot be explained solely on the basis of respiration inhibition, so it is very difficult to draw a conclusion regarding the actual mechanism of action, since 8-HQs are multi-target agents, i.e., they affect several different targets at once (as discussed in the section dedicated to anticancer activity), which subsequently leads to the death of the treated resistant microorganisms.
Compounds were prepared as previously stated and diluted in CaMH broth for S. aureus to achieve the desired final concentrations. S. aureus bacterial suspension in sterile distilled water at 0.5 McFarland was diluted 1:3. Inocula were added to each well by multi-inoculator. Diluted mycobacteria in broth free from inhibiting compounds were used as the growth control. All compounds were prepared in duplicate. Plates were incubated at 37 °C for 24 h for S. aureus. After the incubation period, 10% well volume of MTT (3-(4,5-dimethylthiazol-2-yl)-2,5-diphenyltetrazolium bromide) reagent (Sigma) was mixed into each well and incubated at 37 °C 1 h for S. aureus. Then, 100 µL of 17% sodium dodecyl sulphate in 40% dimethylformamide was added to each well. The plates were read at 570 nm. The absorbance readings from the cells grown in the presence of the tested compounds were compared with uninhibited cell growth to determine the relative percent inhibition. The percent inhibition was determined through MTT assay. The percent viability is calculated through the comparison of a measured value and that of the uninhibited control: % viability = OD570E/OD570P × 100, where OD570E is the reading from the compound-exposed cells, while OD570P is the reading from the uninhibited cells (positive control). Cytotoxic potential is determined by a percent viability of <70% [81, 82].

SMILES	MIC [1] [µM]	MIC [2] [µM]	Conc.: lowest multiple of MIC with at least 70% inhibition of respiratory activity (S. aureus ATCC 29213)	MBC [3] [µM]	S. aureus Respiration Inhibition (S. aureus ATCC 29213) [%]	Conc.: the same concentration as multiple of MBC (S. aureus ATCC 29213)
C#CCNS(=O)(=O)c1ccc(O)c2ncccc12 [3a, 8-Hydroxy-N-(prop-2-yn-1-yl)quinoline-5-sulfonamide]	977 (≈ 256 µg/mL)	977 (≈ 256 µg/mL)	1× MIC (1× MBC)	> 977	92.5	1× MIC (1× MBC)
C#CC(C)(C)NS(=O)(=O)c1ccc(O)c2ncccc12 [3b, 8-Hydroxy-N-(1,1-dimethylprop-2-yn-1-yl)quinoline-5-sulfonamide]	883 (≈ 256 µg/mL)	883 (≈ 256 µg/mL)	2× MIC (2× MBC)	> 883	94.4	2× MIC (2× MBC)
C#CCN(C)S(=O)(=O)c1ccc(O)c2ncccc12 [3c, 8-Hydroxy-N-methyl-N-(prop-2-yn-1-yl)quinoline-5-sulfonamide]	464 (≈ 128 µg/mL)	464 (≈ 128 µg/mL)	2× MIC (2× MBC)	> 464	95.2	2× MIC (2× MBC)

Further lines, with some results ahead:

MIC [1] [µM]	MIC [2] [µM]	Conc.: lowest multiple of MIC with at least 70% inhibition of respiratory activity (S. aureus ATCC 29213)	SMILES	MBC [3] [µM]	S. aureus Respiration Inhibition (S. aureus ATCC 29213) [%]	Conc.: the same concentration as multiple of MBC (S. aureus ATCC 29213)
362 (≈ 128 µg/mL)	362 (≈ 128 µg/mL)	1× MIC (1× MBC)	C#CCOc1ccc(NS(=O)(=O)c2ccc(O)c3ncccc23)cc1 [3d, 8-Hydroxy-N-[4-(prop-2-yn-1-yloxy)phenyl]quinoline-5-sulfonamide]	362 (≈ 128 µg/mL)	73.0	1× MIC (1× MBC)
362 (≈ 128 µg/mL)	362 (≈ 128 µg/mL)	1× MIC (1× MBC)	C#CCOc1cccc(NS(=O)(=O)c2ccc(O)c3ncccc23)c1 [3e, 8-Hydroxy-N-[3-(prop-2-yn-1-yloxy)phenyl]quinoline-5-sulfonamide]	362 (≈ 128 µg/mL)	73.7	1× MIC (1× MBC)
362 (≈ 128 µg/mL)	362 (≈ 128 µg/mL)	1× MIC (1× MBC)	C#CCOc1ccccc1NS(=O)(=O)c1ccc(O)c2ncccc12 [3f, 8-Hydroxy-N-[2-(prop-2-yn-1-yloxy)phenyl]quinoline-5-sulfonamide]	362 (≈ 128 µg/mL)	81.6	1× MIC (1× MBC)
